Results published in PubChem BioAssay (NCI).
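Exposure lasted 48 hours, with cells grown in 96-well plates and compounds tested at five concentrations. GI50 = concentration required for 50% inhibition of growth. At the TGI there is no net growth.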

How the values were obtained:
Test in all cases: growth of human tumour cells (NCI), 48 h
[1] = test system: 786-0 renal
[2] = test system: A498 renal
[3] = test system: A549 NSCLC
[4] = test system: ACHN renal
[5] = test system: BT-549 breast
[6] = test system: CAKI-1 renal
[7] = test system: CCRF-CEM leukemia
[8] = test system: COLO 205 colon
[9] = test system: DU-145 prostate
[10] = test system: EKVX NSCLC
[11] = test system: HCC-2998 colon
[12] = test system: HCT-116 colon
[13] = test system: HCT-15 colon
[14] = test system: HL-60(TB) leukemia
[15] = test system: HOP-62 NSCLC
[16] = test system: HOP-92 NSCLC
[17] = test system: HS 578T breast
[18] = test system: HT29 colon
[19] = test system: IGROV1 ovarian
[20] = test system: K-562 leukemia
[21] = test system: KM12 colon
[22] = test system: LOX IMVI melanoma
[23] = test system: M14 melanoma
[24] = test system: MALME-3M melanoma
[25] = test system: MCF7 breast
[26] = test system: MDA-MB-231 breast
[27] = test system: MDA-MB-435
[28] = test system: MDA-MB-468 breast
[29] = test system: MOLT-4 leukemia

CN1CCN(c2ccc(C(=O)/C=C/c3cc(Br)ccc3F)cc2)CC1
GI50 [1]: 10 µM | TGI [1]: 22.4 µM | GI50 [2]: 17 µM | TGI [2]: 31.7 µM | GI50 [3]: 4.38 µM | TGI [3]: 16.5 µM | GI50 [4]: 13.4 µM | TGI [4]: 29.5 µM | GI50 [5]: 3.58 µM | TGI [5]: 12.2 µM | GI50 [6]: 12.1 µM | TGI [6]: 24.6 µM | GI50 [7]: 3.44 µM | TGI [7]: 15.6 µM | GI50 [8]: 11.8 µM | TGI [8]: 30.1 µM | GI50 [9]: 11.1 µM | TGI [9]: 23 µM | GI50 [10]: 13.3 µM | TGI [10]: 26.4 µM | GI50 [11]: 2.76 µM | TGI [11]: 7.91 µM | GI50 [12]: 1.79 µM | TGI [12]: 3.93 µM | GI50 [13]: 3.43 µM | TGI [13]: 14.7 µM | GI50 [14]: 2.77 µM | TGI [14]: 14.5 µM | GI50 [15]: 16.2 µM | TGI [15]: 31.5 µM | GI50 [16]: 6.71 µM | TGI [16]: 21.9 µM | GI50 [17]: 13.3 µM | TGI [17]: 38.8 µM | GI50 [18]: 2.87 µM | TGI [18]: 10.9 µM | GI50 [19]: 12.8 µM | TGI [19]: 26.6 µM | GI50 [20]: 2.28 µM | TGI [20]: 11.8 µM | GI50 [21]: 2.69 µM | TGI [21]: 9.23 µM | GI50 [22]: 3.2 µM | TGI [22]: 12.5 µM | GI50 [23]: 6.38 µM | TGI [23]: 19.7 µM | GI50 [24]: 15.3 µM | TGI [24]: 29.4 µM | GI50 [25]: 2.67 µM | TGI [25]: 11.5 µM | GI50 [26]: 13.2 µM | TGI [26]: 30 µM | GI50 [27]: 3.78 µM | TGI [27]: 13.5 µM | GI50 [28]: 2.51 µM | TGI [28]: 9.77 µM | GI50 [29]: 3.69 µM | TGI [29]: 16.8 µM
